In brackets after ≈: the same amount, converted by molar mass.
Assays:
[1] = system: Mycobacterium tuberculosis; experiment: Antitubercular activity against dormant Mycobacterium tuberculosis H37Ra assessed as growth inhibition at 3 ug/mL by XTT reduction menadione assay; format: functional; settings: read-out: GI
[2] = Cytotoxicity against human HCT116 cells at 10 ug/mL by MTT assay; format: cell-based, HCT-116; settings: read-out: INH
[3] = Cytotoxicity against human MCF7 cells at 10 ug/mL by MTT assay; format: cell-based; settings: read-out: INH
[4] = Cytotoxicity against human MCF7 cells at 3 ug/mL by MTT assay; format: cell-based; settings: read-out: INH
[5] = system: Mycobacterium bovis BCG str. ATCC 35743; experiment: Antitubercular activity against dormant Mycobacterium bovis BCG ATCC 35743 assessed as growth inhibition at 10 ug/mL by NR assay; format: functional
[6] = system: Mycobacterium bovis BCG str. ATCC 35743; experiment: (§1) Antitubercular activity against dormant Mycobacterium bovis BCG ATCC 35743 by NR assay; format: functional
[7] = as §1; format: functional, Mycobacterium bovis BCG str. ATCC 35743
[8] = Cytotoxicity against human MCF7 cells at 30 ug/mL by MTT assay; format: cell-based; settings: read-out: INH
[9] = Cytotoxicity against human HCT116 cells at 3 ug/mL by MTT assay; format: cell-based, HCT-116; settings: read-out: INH
[10] = system: Mycobacterium bovis BCG str. ATCC 35743; experiment: Antitubercular activity against dormant Mycobacterium bovis BCG ATCC 35743 assessed as growth inhibition at 30 ug/mL by NR assay; format: functional
[11] = system: Mycobacterium bovis BCG str. ATCC 35743; experiment: Antitubercular activity against dormant Mycobacterium bovis BCG ATCC 35743 assessed as growth inhibition at 3 ug/mL by NR assay; format: functional
[12] = Cytotoxicity against human A549 cells at 30 ug/mL by MTT assay; format: cell-based; settings: read-out: INH
[13] = Cytotoxicity against human HCT116 cells at 30 ug/mL by MTT assay; format: cell-based, HCT-116; settings: read-out: INH
[14] = Cytotoxicity against human A549 cells at 3 ug/mL by MTT assay; format: cell-based; settings: read-out: INH
[15] = Cytotoxicity against human A549 cells at 10 ug/mL by MTT assay; format: cell-based; settings: read-out: INH
[16] = system: Mycobacterium tuberculosis; experiment: Antitubercular activity against dormant Mycobacterium tuberculosis H37Ra assessed as growth inhibition at 30 ug/mL by XTT reduction menadione assay; format: functional; settings: read-out: GI
[17] = system: Mycobacterium tuberculosis; experiment: Antitubercular activity against dormant Mycobacterium tuberculosis H37Ra assessed as growth inhibition at 10 ug/mL by XTT reduction menadione assay; format: functional; settings: read-out: GI
[18] = system: Mycobacterium tuberculosis; experiment: Antitubercular activity against dormant Mycobacterium tuberculosis H37Ra by XTT reduction menadione assay; format: functional, organism-based
Bacillus subtilis = experiment: Antibacterial activity against Bacillus subtilis after 18 hrs by broth dilution method; format: functional, organism-based
Staphylococcus aureus = experiment: Antibacterial activity against Staphylococcus aureus after 18 hrs by broth dilution method; format: functional, organism-based
Escherichia coli = experiment: Antibacterial activity against Escherichia coli after 18 hrs by broth dilution method; format: functional, organism-based
Pseudomonas = experiment: Antibacterial activity against Pseudomonas after 18 hrs by broth dilution method; format: functional, organism-based

`O=C1CSC(c2ccc([N+](=O)[O-])cc2)N1c1ccccc1` (stereo unspecified) showed an inhibition of growth at 3 µg/mL [1] of -17.1%, a cytotoxicity at 10 ug/mL [2] of 9% and a cytotoxicity at 10 ug/mL [3] of 49.9%. For the same molecule, the cytotoxicity at 3 ug/mL [4] was 47%, the growth inhibition (GI) [5] was 12.5% and the IC90 [6] was > 30 µg/mL. The IC50 [7] was > 30 µg/mL, the cytotoxicity at 30 ug/mL [8] was 52.6% and the cytotoxicity at 3 ug/mL [9] was -11.5%. It also gave a growth inhibition (GI) [10] of 14.4%, a growth inhibition (GI) [11] of 17.8% and a cytotoxicity at 30 ug/mL [12] of 8.8%. The cytotoxicity at 30 ug/mL [13] was 29.3%, the cytotoxicity at 3 ug/mL [14] was 0.3% and the cytotoxicity at 10 ug/mL [15] was 6.7%. For the same molecule, the inhibition of growth at 30 µg/mL [16] was -8.8%, the inhibition of growth at 10 µg/mL [17] was -30.4% and the IC50 [18] was > 30 µg/mL. For the same molecule, the IC90 [18] was > 30 µg/mL.
Molecule `O=C1CSC(c2ccccc2)N1c1ccc(Br)cc1` (stereo unspecified) has an inhibition of growth at 3 µg/mL [1] of -6.9%, a cytotoxicity at 10 ug/mL [2] of 8.2% and a cytotoxicity at 10 ug/mL [3] of 9.4%. For the same molecule, the cytotoxicity at 3 ug/mL [4] was -2.6%, the growth inhibition (GI) [5] was -2.7% and the IC90 [6] was > 30 µg/mL. For the same molecule, the IC50 [7] was > 30 µg/mL, the cytotoxicity at 30 ug/mL [8] was 23.8% and the cytotoxicity at 3 ug/mL [9] was -7.3%. It also gave a growth inhibition (GI) [10] of -35.7%, a growth inhibition (GI) [11] of -14% and a cytotoxicity at 30 ug/mL [12] of 0%. The cytotoxicity at 30 ug/mL [13] was 22%, the cytotoxicity at 3 ug/mL [14] was 0% and the cytotoxicity at 10 ug/mL [15] was 0%. The inhibition of growth at 30 µg/mL [16] was -0.7%, the inhibition of growth at 10 µg/mL [17] was -27.5% and the IC50 [18] was > 30 µg/mL. The IC90 [18] was > 30 µg/mL.
For `Cc1ccc(C2SCC(=O)N2c2ccc(C)cc2)cc1` (stereo unspecified), the inhibition of growth at 3 µg/mL [1] was -18.5%, the cytotoxicity at 10 ug/mL [2] was 16.7% and the cytotoxicity at 10 ug/mL [3] was 16.4%. For the same molecule, the cytotoxicity at 3 ug/mL [4] was -9.2%, the growth inhibition (GI) [5] was -1.2% and the IC90 [6] was > 30 µg/mL. The IC50 [7] was > 30 µg/mL, the cytotoxicity at 30 ug/mL [8] was 19.6% and the cytotoxicity at 3 ug/mL [9] was 9.7%. The growth inhibition (GI) [10] was -1.9%, the growth inhibition (GI) [11] was -12.5% and the cytotoxicity at 30 ug/mL [12] was -13.4%. For the same molecule, the cytotoxicity at 30 ug/mL [13] was 45%, the cytotoxicity at 3 ug/mL [14] was 8.6% and the cytotoxicity at 10 ug/mL [15] was 0%. The inhibition of growth at 30 µg/mL [16] was -27.4%, the inhibition of growth at 10 µg/mL [17] was -26.4% and the IC50 [18] was > 30 µg/mL. For the same molecule, the IC90 [18] was > 30 µg/mL.
In the case of `NC[C@H]1O[C@H](O[C@H]2[C@H](O)[C@@H](O[C@H]3O[C@H](CO)[C@@H](O)[C@H](N)[C@H]3O)[C@H](N)C[C@@H]2N)[C@H](O)[C@@H](O)[C@@H]1O` [KANAMYCIN], the IC50 (Bacillus subtilis) is reported as 1.35 µg/mL (≈ 2.79 µM), the MIC (Bacillus subtilis) is reported as 0.25 µg/mL (≈ 0.516 µM) and the IC50 (Staphylococcus aureus) is reported as > 30 µg/mL. The MIC (Staphylococcus aureus) was 16 µg/mL (≈ 33 µM), the IC50 (Escherichia coli) was 1.62 µg/mL (≈ 3.34 µM) and the MIC (Escherichia coli) was 0.67 µg/mL (≈ 1.38 µM). It also gave an IC50 (Pseudomonas) of 0.49 µg/mL (≈ 1.01 µM) and an MIC (Pseudomonas) of 0.012 µg/mL (≈ 0.0248 µM).
With `Cc1ccc(N2C(=O)CSC2c2ccccc2)cc1` (stereo unspecified) the inhibition of growth at 3 µg/mL [1] was -21.6%, the cytotoxicity at 10 ug/mL [2] was 20.5% and the cytotoxicity at 10 ug/mL [3] was 8.4%. For the same molecule, the cytotoxicity at 3 ug/mL [4] was -40.6%, the growth inhibition (GI) [5] was 4.5% and the IC90 [6] was > 30 µg/mL. For the same molecule, the IC50 [7] was > 30 µg/mL, the cytotoxicity at 30 ug/mL [8] was 29.2% and the cytotoxicity at 3 ug/mL [9] was 16.1%. The growth inhibition (GI) [10] was 39.7%, the growth inhibition (GI) [11] was 61.6% and the cytotoxicity at 30 ug/mL [12] was -15.9%. The cytotoxicity at 30 ug/mL [13] was 21.6%, the cytotoxicity at 3 ug/mL [14] was 0% and the cytotoxicity at 10 ug/mL [15] was 0%. For the same molecule, the inhibition of growth at 30 µg/mL [16] was -0.7%, the inhibition of growth at 10 µg/mL [17] was -24.3% and the IC50 [18] was > 30 µg/mL. The IC90 [18] was > 30 µg/mL.
In the case of `CO[C@H]1/C=C/O[C@@]2(C)Oc3c(C)c(O)c4c(O)c(c(/C=N/N5CCN(C)CC5)c(O)c4c3C2=O)NC(=O)/C(C)=C\C=C\[C@H](C)[C@H](O)[C@@H](C)[C@@H](O)[C@@H](C)[C@H](OC(C)=O)[C@@H]1C` [RIFAMPIN], the IC90 [6] is reported as 0.041 µg/mL (≈ 0.0498 µM), the IC50 [7] is reported as 0.0016 µg/mL (≈ 0.00194 µM) and the IC90 [18] is reported as 0.043 µg/mL (≈ 0.0523 µM).
Work on `Cc1ccc(N2C(=O)CSC2c2ccc([N+](=O)[O-])cc2)cc1` (stereo unspecified) yielded an inhibition of growth at 3 µg/mL [1] of 21.2%, a cytotoxicity at 10 ug/mL [2] of -14.6% and a cytotoxicity at 10 ug/mL [3] of 38.8%. The cytotoxicity at 3 ug/mL [4] was 34.6%, the growth inhibition (GI) [5] was -6.1% and the IC90 [6] was > 30 µg/mL. The IC50 [7] was > 30 µg/mL, the cytotoxicity at 30 ug/mL [8] was 45.6% and the cytotoxicity at 3 ug/mL [9] was -16.1%. The growth inhibition (GI) [10] was -7.1%, the growth inhibition (GI) [11] was -2% and the cytotoxicity at 30 ug/mL [12] was -10.3%. It also gave a cytotoxicity at 30 ug/mL [13] of -12.4%, a cytotoxicity at 3 ug/mL [14] of -11.3% and a cytotoxicity at 10 ug/mL [15] of 0%. The inhibition of growth at 30 µg/mL [16] was 14.4%, the inhibition of growth at 10 µg/mL [17] was -5.4% and the IC50 [18] was > 30 µg/mL. The IC90 [18] was > 30 µg/mL.

— ChEMBL document CHEMBL3779788, “Facile synthesis of 1,3-thiazolidin-4-ones as antitubercular agents” (Bioorg Med Chem Lett, 2016)
